Tests used:
Assay in all cases: relative viability (nuclei count vs DMSO), 5 days (fraction); higher = more cells survive
[1] = compound: CCn1c(-c2nonc2N)nc2cnc(Oc3cccc(NC(=O)c4ccc(OCCN5CCOCC5)cc4)c3)cc21 + NC(=O)Nc1cc(-c2cccc(F)c2)sc1C(=O)N[C@H]1CCCNC1 [AZD7762] (partner 0.2 µM)
Summary of the method: (§1)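 Dosing by pin tool came one day after lung cancer cell lines were seeded in 1536-well plates, using either one drug or a fixed anchor-drug dose plus five library-drug doses (not always all listed) in √10 steps. After 5 days, nuclei were counted on 4× images. Relative viability is treated-well nuclei count divided by vehicle-well nuclei count, and values are medians of duplicate plates.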

Mirin + Olaparib = compound: N=C1NC(=O)/C(=C/c2ccc(O)cc2)S1 [Mirin] + O=C(c1cc(Cc2n[nH]c(=O)c3ccccc23)ccc1F)N1CCN(C(=O)C2CC2)CC1 [Olaparib] (partner 8 µM)
Summary of the method: as §1

[2] = compound: CCC1=CN=CN=C1N2CCN(CC2)CC3=NC4=C(N3)C=C(C=C4)C(F)(F)F + NC(=O)Nc1cc(-c2cccc(F)c2)sc1C(=O)N[C@H]1CCCNC1 [AZD7762] (partner 0.2 µM)
Summary of the method: as §1

[3] = compound: CCC1=CN=CN=C1N2CCN(CC2)CC3=NC4=C(N3)C=C(C=C4)C(F)(F)F + Cc1nc(Nc2ncc(C(=O)Nc3c(C)cccc3Cl)s2)cc(N2CCN(CCO)CC2)n1 [Dasatinib] (partner 0.075 µM)
Summary of the method: as §1

Cell Line | relative viability ([1]; first compound 0.04 µM) | relative viability ([1]; first compound 0.1265 µM) | relative viability ([1]; first compound 0.4 µM) | relative viability ([1]; first compound 1.265 µM) | relative viability ([1]; first compound 4 µM) | relative viability (Mirin + Olaparib; first compound 0.25 µM) | relative viability (Mirin + Olaparib; first compound 0.7906 µM) | relative viability (Mirin + Olaparib; first compound 2.5 µM) | relative viability (Mirin + Olaparib; first compound 7.906 µM) | relative viability (Mirin + Olaparib; first compound 25 µM) | relative viability ([2]; first compound 0.04 µM) | relative viability ([2]; first compound 0.1265 µM) | relative viability ([2]; first compound 0.4 µM) | relative viability ([2]; first compound 1.265 µM) | relative viability ([2]; first compound 4 µM) | relative viability ([3]; first compound 0.04 µM) | relative viability ([3]; first compound 0.1265 µM) | relative viability ([3]; first compound 0.4 µM) | relative viability ([3]; first compound 1.265 µM) | relative viability ([3]; first compound 4 µM)
NCI-H2126 | 1.07 | 0.998 | 0.832 | 0.924 | 0.839 | 0.929 | 0.925 | 0.951 | 0.947 | 0.959 | 0.97 | 1.02 | 0.957 | 1.02 | 1.17 | 0.589 | 0.593 | 0.535 | 0.516 | 0.485
LU99A | 0.439 | 0.436 | 0.241 | 0.296 | 0.252 | 0.297 | 0.206 | 0.288 | 0.228 | 0.165 | 0.41 | 0.301 | 0.34 | 0.359 | 0.403 | 0.718 | 0.511 | 0.458 | 0.602 | 0.7
BEN | 0.683 | 0.532 | 0.388 | 0.385 | 0.468 | 0.958 | 0.987 | 1.21 | 0.962 | 0.638 | 0.573 | 0.57 | 0.614 | 0.611 | 0.578 | 0.241 | 0.261 | 0.303 | 0.335 | 0.288
NCI-H1975 | 0.597 | 0.471 | 0.374 | 0.201 | 0.214 | 0.892 | 0.83 | 0.819 | 0.855 | 0.715 | 0.662 | 0.744 | 0.713 | 0.645 | 0.746 | 0.402 | 0.435 | 0.385 | 0.325 | 0.293
NCI-H522 | 0.697 | 0.821 | 0.549 | 0.689 | 0.474 | 0.583 | 0.665 | 0.624 | 0.719 | 0.508 | 0.87 | 0.869 | 0.707 | 0.748 | 0.901 | 0.849 | 0.819 | 0.88 | 0.866 | 0.923
NCI-H460 | 0.712 | 0.465 | 0.148 | 0.0565 | 0.0732 | 0.505 | 0.447 | 0.438 | 0.413 | 0.557 | 0.622 | 0.528 | 0.619 | 0.578 | 0.6 | 0.583 | 0.467 | 0.544 | 0.472 | 0.541
LCLC-103H | 0.837 | 0.743 | 0.422 | 0.397 | 0.404 | 0.703 | 0.892 | 0.758 | 0.847 | 0.89 | 0.776 | 0.774 | 0.794 | 0.684 | 0.865 | 0.473 | 0.444 | 0.414 | 0.483 | 0.474
HCC-78 | 0.865 | 0.821 | – | 0.617 | 0.906 | 0.786 | 0.628 | 0.718 | 0.852 | 0.732 | 0.564 | 0.559 | 0.668 | 0.525 | 0.631 | 0.327 | 0.416 | 0.374 | 0.316 | 0.363
NCI-H1915 | 0.726 | 0.569 | 0.467 | 0.251 | 0.201 | 0.283 | 0.221 | 0.272 | 0.223 | 0.182 | 0.684 | 0.688 | 0.694 | 0.597 | 0.734 | 0.276 | 0.318 | 0.283 | 0.298 | 0.319
